Converted amounts (≈) assume the structure as drawn. Like-named read-outs stand apart in the source and are kept apart here.
Key:
[1] = system: human embryoid bodies (hEBs); assay: Morphological evaluation of embryoid bodies (photomicrographs); type: cell-based; details: for morphology of treated hEBs compared to controls: day 7, 10 μg/ml (FIG. 4E-c, 4F-c); for concentration required to elicit a similar morphological response (loss of compactness, decreased EB size): day 7 hEBs, FIG. 4A-4D
Protocol: Hanging drops were made in hES media with LIF and bFGF for calculating IC50-hES cells, and in hES media without LIF and bFGF (hEB media) for the formation of EBs. On day 3 the hES colonies were collected along with the respective test compound concentration, whereas the hEBs were collected and transferred to 60 mm bacteriological petri plates for another 2 days. Morphology of the EBs was monitored under the microscope for the formation of EBs. On day 5 the hEBs were plated in a 96 well plate for MTT, as well as on a 6 well plate for RNA extraction. The media along with the appropriate test compound concentration was replaced in the 96 well and 6 well plates on days 7, 9, 11, and 13. On day 15, MTT was performed on the hES plate and the differentiated EBs. RNA was extracted from all the concentrations of 5-fluorouracil, and 1 μg of RNA was converted to cDNA to perform RT-PCR, real time PCR, or TLDA.

[2] = system: human embryoid bodies (hEB); assay: Cytotoxicity in human embryoid bodies, day 15 (MTT / CyQUANT); details: for IC50: Homo sapiens
Protocol: In general, the presently disclosed embryotoxicity testing protocols comprise the following sequence of steps. Studies using embryoid bodies generally comprise: a) preparation of various concentrations of test solutions in culture medium or a desired solvent; b) preparation of a cell suspension by enzymatic digestion of human embryonic stem cell colonies; c) culturing the cell suspension for formation of embryoid bodies in the presence and absence of one or more test solutions, and incubation for several days (e.g., three days) in hanging drops; d) cultivation of the embryoid bodies in bacteriological petri dishes for several days (e.g., two days) under controlled conditions; e) transfer of the embryoid bodies into 96 well plates and incubation for several days (e.g., 10 days) in the presence of one or more test solutions; and f) detection of the viability of the embryoid bodies after 15 days by MTT assay, or fluorescent or luminescent method, and isolation of RNA for studying gene expression. Studies using human foreskin fibroblasts (HFF) generally comprise: a) preparation of various concentrations of test solutions in culture medium or a desired solvent; b) plating of HFF cells in 96 well plates in the presence or absence of one or more test solutions for 15 days, changing the media and test solutions every 2 days; and c) detection of the viability of HFF after 15 days by MTT assay, or fluorescent or luminescent method. Studies using human embryonic stem cells generally comprise: a) preparation of various concentrations of test solutions in culture medium or a desired solvent; b) preparation of hES colonies by manual passage in the presence and absence of one or more test solutions, and incubation for 15 days on matrigel coated plates changing the media and test solutions every 2 days; c) disruption of the colonies after 15 days with enzymes to form single cells; d) labeling of single cells with a fluorescently-labeled dye, such as propidium iodide (“PI”); and e) detection of the percentage viability with FACS as a measure of cytotoxicity.
The culturing of the cell suspension is done by dispensing about ¼ of the cell suspension along with test chemicals on the inner side of a 100 mm bacteriological petri dish. Around 50-80 drops are dispensed for each concentration, the untreated control, and the solvent control. The lid is turned carefully into its regular position and is put on top of a petri dish containing 5 ml of phosphate buffered saline (“PBS”). The “hanging drops” are incubated for three days in a humidified atmosphere with 5% CO2 at 37° C.
On day 3, 5 ml of freshly prepared test solution is added to the lid of the “hanging drops” petri dish. The embryoid bodies are carefully transferred from the lid of the “hanging drops” petri dish to a 60 mm bacteriological petri dish. The suspension is cultivated for two days in a humidified atmosphere with 5% CO2 at 37° C.
On the 5th day, the EBs are transferred into 96 well plates by placing 10 EBs in each well. About 150 μl of freshly prepared test solution is added to each well, and three wells are used for each concentration. The 96 well plates are incubated for […] in a humidified atmosphere with 5% CO2 at 37° C. The remaining EBs are plated on a 24 well plate coated with 0.2% gelatin and allowed to differentiate. Media was replaced every second day until day 15.
On the 15th day, an MTT assay is performed. MTT solution (5 mg/ml) is prepared in culture medium containing test chemical. The MTT solution is added to all wells and incubated at 37° C. in a humidified atmosphere of 5% CO2 for 4 hours, after which the MTT desorb solution (acidified isopropanol) is added to each well. The plate is shaken on a micrometer plate for 15 minutes to dissolve the formazan. The absorbance is measured at 550-570 nm in a microtiter plate reader using 630 nm as a reference wavelength.

Row | SMILES | IC50 ([2]; 360 h, read-out: IC50-hEB) [µg/mL] | morphology of treated hEBs compared to controls [1] | IC50 ([2]; read-out: IC50-hEBs) [µg/mL] | concentration required to elicit a similar morphological response (loss of compactness, decreased EB size) [1] [μg/ml] | other results
1 | O=c1[nH]cc(F)c(=O)[nH]1 [5-Fluorouracil, 5-fluorouracil] | 0.00114 (≈ 0.00873 µM) | – | – | – | morphology of 5 day old EBs compared to control ([1]; 1 μg/ml, day 5, FIG. 2A): significant change in the morphology; survival of hEBs until day 15 ([2]; 1 μg/ml (highest dose)): did not survive until day 15; effect on cell viability ([2]; hEBs, 0.01 μg/ml, FIG. 3A): significant effect; survival percentage ([2]; hEBs, 1 μg/ml, day 15, FIG. 3A): 7%
2 | CS(=O)(=O)OCCCCOS(C)(=O)=O [Busulfan, busulfan] | 0.38 ± 0.03 (≈ 1.54 µM) | loss of compactness and a decrease in the size of the EBs | 0.38 (≈ 1.54 µM) | – | cell survival ([2]; hEBs, 1 μg/ml, CyQUANT, FIG. 4E): 30%
3 | Cn1c(=O)c2c(ncn2C)n(C)c1=O [Caffeine, caffeine] | 81.6 ± 5.4 (≈ 420 µM) | – | 81.6 (≈ 420 µM) | – | morphology of 5 day old EBs ([1]; increasing dose (50 and 500 μg/ml), day 5, FIG. 2B): significant darkening of the cells; survival ([2]; hEBs, 500 μg/ml, FIG. 3B): about 10%
4 | NC(=O)NO [Hydroxyurea, hydroxyurea] | 2.33 ± 0.2 (≈ 30.6 µM) | loss of compactness and a decrease in the size of the EBs | 2.3 (≈ 30.2 µM) | – | –
5 | COc1ccc2c(c1)c(CC(=O)O)c(C)n2C(=O)c1ccc(Cl)cc1 [Indomethacin, indomethacin] | 4.49 ± 0.84 (≈ 12.5 µM) | – | 4.49 (≈ 12.5 µM) | 100 | –
6 | CC1(C)S[C@@H]2[C@H](NC(=O)Cc3ccccc3)C(=O)N2[C@H]1C(=O)O [Penicillin G, penicillin G] | – | – | – | 5000 | morphology of 5 day old EBs ([1]; 5000 μg/ml (highest dose), day 5, FIG. 2C): non-significant darkening; morphology of 5 day old EBs ([1]; up to 1000 μg/ml, day 5, FIG. 2C): no significant change; cytotoxic effects in hEBs compared to hES cells and HFF ([2]; 1000 μg/ml, FIG. 3C): more cytotoxic effects; IC50-hEBs ([2]; Table 5): 1300 µg/mL (≈ 3890 µM); cell survival ([2]; hEBs, 1000 μg/ml, CyQUANT, FIG. 4A/4B): about 60%; cell survival ([2]; hEBs, 5000 μg/ml (highest dose), FIG. 3C): 30%

Source: patent US20090220996A1, “In vitro Assay Methods for Classifying Embryotoxicity of Compounds” (RELIANCE LIFE SCIENCES PVT LTD., priority 2007, published 2009)
